9 compounds from ChEMBL document CHEMBL5244258, “PROTACs: New method to degrade transcription regulating proteins” (Eur J Med Chem, 2020) can be followed below.

Assay [1] concerns the target T1, von Hippel-Lindau disease tumor suppressor/Estrogen receptor (Homo sapiens, UniProt P03372+P40337). As to the kind of experiment: Protac activity at ER/VHL (unknown origin) degradation in human MCF7 cells assessed as maximum efficacy by immunoblotting analysis relative to control. Type of assay: cell-based.
Target sequence in this assay (P40337 whole entry, looked up, one chain of several): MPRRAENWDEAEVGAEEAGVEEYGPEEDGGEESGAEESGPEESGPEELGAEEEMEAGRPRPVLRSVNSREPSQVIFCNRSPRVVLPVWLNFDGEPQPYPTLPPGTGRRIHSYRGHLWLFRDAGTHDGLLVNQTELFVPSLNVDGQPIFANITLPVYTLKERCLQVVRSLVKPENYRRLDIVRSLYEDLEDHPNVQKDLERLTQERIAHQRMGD
In assay [2] the target is T1, von Hippel-Lindau disease tumor suppressor/Estrogen receptor. As to the kind of experiment: Protac activity at ER/VHL (unknown origin) degradation in human MCF7 cells by immunoblotting analysis. Type of assay: cell-based. (A western blot detects proteins with antibodies after separation by electrophoresis.)
Target sequence in this assay (P40337 whole entry, one chain of several): as the sequence (P40337 whole entry, looked up, one chain of several) above
The target of assay [3] is von Hippel-Lindau disease tumor suppressor/Steroid hormone receptor ERR1 (Homo sapiens) (UniProt P11474+P40337). As to the kind of experiment: Protac activity at VHL/ERRalpha in human MCF7 cells assessed as maximum efficacy relative to control. In kind it is cell-based.
For assay [4], the target named is T2, Androgen receptor (Homo sapiens, UniProt P10275).
T2 sequence (P10275 whole entry): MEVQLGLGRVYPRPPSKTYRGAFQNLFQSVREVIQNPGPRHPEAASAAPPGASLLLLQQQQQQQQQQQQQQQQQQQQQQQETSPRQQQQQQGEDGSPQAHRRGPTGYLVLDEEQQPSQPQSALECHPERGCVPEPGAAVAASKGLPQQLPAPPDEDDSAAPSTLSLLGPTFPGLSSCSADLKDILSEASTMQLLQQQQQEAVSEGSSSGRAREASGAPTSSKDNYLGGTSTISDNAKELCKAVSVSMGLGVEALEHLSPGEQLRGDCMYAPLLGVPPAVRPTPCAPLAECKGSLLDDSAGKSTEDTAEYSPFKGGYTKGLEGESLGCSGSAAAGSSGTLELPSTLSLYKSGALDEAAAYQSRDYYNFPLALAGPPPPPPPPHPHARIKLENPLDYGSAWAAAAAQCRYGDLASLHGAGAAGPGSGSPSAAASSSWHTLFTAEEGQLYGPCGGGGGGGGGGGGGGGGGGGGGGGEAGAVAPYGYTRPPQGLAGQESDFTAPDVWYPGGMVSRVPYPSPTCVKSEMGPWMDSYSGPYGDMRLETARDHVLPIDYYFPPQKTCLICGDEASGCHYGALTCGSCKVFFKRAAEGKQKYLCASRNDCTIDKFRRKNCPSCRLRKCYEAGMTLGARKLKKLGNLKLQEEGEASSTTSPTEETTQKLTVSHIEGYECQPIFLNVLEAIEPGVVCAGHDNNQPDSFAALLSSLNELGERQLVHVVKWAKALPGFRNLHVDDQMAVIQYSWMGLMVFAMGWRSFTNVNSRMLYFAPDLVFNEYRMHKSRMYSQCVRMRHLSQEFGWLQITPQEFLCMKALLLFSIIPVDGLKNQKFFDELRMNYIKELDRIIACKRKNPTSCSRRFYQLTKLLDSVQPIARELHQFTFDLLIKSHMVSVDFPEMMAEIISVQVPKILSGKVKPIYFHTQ
As to the kind of experiment: Induction of AR degradation in human HeLa cells. In kind it is cell-based.

For assay [5], the target named is T3, Androgen receptor (Homo sapiens) (UniProt P10275).
T3 sequence (whole entry): T2 sequence (P10275 whole entry)
As to the kind of experiment: Induction of AR degradation in human HeLa cells assessed as maximum efficacy at 3 nM relative to control. In kind it is cell-based.

In assay [6] the target is T4, Estrogen receptor (Homo sapiens) (UniProt P03372).
T4 sequence (whole entry): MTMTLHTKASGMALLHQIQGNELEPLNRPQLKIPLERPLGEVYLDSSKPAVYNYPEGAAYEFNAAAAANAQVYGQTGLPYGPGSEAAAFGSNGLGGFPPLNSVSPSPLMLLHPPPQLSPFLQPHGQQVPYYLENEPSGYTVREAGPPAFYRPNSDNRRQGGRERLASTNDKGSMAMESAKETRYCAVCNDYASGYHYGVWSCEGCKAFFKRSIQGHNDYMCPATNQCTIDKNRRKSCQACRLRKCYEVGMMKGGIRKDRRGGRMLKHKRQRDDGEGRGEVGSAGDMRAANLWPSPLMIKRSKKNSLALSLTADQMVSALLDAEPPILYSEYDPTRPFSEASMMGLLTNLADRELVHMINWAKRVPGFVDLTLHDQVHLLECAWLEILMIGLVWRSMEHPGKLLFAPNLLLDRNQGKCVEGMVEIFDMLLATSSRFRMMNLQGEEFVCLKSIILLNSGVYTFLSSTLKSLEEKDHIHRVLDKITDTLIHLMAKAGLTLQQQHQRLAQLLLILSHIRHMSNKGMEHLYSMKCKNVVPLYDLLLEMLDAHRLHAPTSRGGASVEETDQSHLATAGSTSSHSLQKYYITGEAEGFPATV
As to the kind of experiment: Induction of estrogen receptor degradation in human MCF7 cells assessed as maximum efficacy relative to control. Type of assay: cell-based.

Assay [7] concerns the target T5, Estrogen receptor (Homo sapiens, UniProt P03372).
T5 sequence (P03372 whole entry): T4 sequence (whole entry)
As to the kind of experiment: Induction of estrogen receptor degradation in human MCF7. Type of assay: cell-based.

Assay [8] addresses T3, Androgen receptor (Homo sapiens). As to the kind of experiment: Induction of AR degradation in human HeLa cells assessed as maximum efficacy at 100 nM relative to control. In kind it is cell-based.
In assay [9] the test system is HCT-116. As to the kind of experiment: Antiproliferative activity against human HCT-116 cells assessed as reduction in cell viability measured for 48 hrs by MTT assay. In kind it is functional. For orientation: Formazan colour is commonly taken as a measure of viable cells.
Assay [10] concerns the target T6, Bromodomain-containing protein 2 (Homo sapiens, UniProt P25440). As to the kind of experiment: Induction of BRD2 degradation (unknown origin).
Assay [11] concerns the target T7, von Hippel-Lindau disease tumor suppressor/Bromodomain-containing protein 4 (Homo sapiens, UniProt O60885+P40337). As to the kind of experiment: Protac activity at BRD4/VHL (unknown origin) assessed as maximum efficacy relative to control.
Assay [12] has as its target T6, Bromodomain-containing protein 2. As to the kind of experiment: Induction of BRD2 degradation (unknown origin) relative to control.
Assay [13] concerns the target T8, von Hippel-Lindau disease tumor suppressor/SWI/SNF-related matrix-associated actin-dependent regulator of chromatin subfamily A member 2 (Homo sapiens, UniProt P51531+P40337). As to the kind of experiment: PROTAC activity at SMARCA2/VHL in human MV4-11 cells assessed as degradation of SMARCA2 measured for 24 hrs by Western blot analysis relative to control. Type of assay: cell-based.

Assay [14] concerns the target T8, von Hippel-Lindau disease tumor suppressor/SWI/SNF-related matrix-associated actin-dependent regulator of chromatin subfamily A member 2. As to the kind of experiment: PROTAC activity at SMARCA2/VHL in human MV4-11 cells assessed as degradation of SMARCA2 by Western blot analysis. Type of assay: cell-based.
Target sequence in this assay (P51531 whole entry): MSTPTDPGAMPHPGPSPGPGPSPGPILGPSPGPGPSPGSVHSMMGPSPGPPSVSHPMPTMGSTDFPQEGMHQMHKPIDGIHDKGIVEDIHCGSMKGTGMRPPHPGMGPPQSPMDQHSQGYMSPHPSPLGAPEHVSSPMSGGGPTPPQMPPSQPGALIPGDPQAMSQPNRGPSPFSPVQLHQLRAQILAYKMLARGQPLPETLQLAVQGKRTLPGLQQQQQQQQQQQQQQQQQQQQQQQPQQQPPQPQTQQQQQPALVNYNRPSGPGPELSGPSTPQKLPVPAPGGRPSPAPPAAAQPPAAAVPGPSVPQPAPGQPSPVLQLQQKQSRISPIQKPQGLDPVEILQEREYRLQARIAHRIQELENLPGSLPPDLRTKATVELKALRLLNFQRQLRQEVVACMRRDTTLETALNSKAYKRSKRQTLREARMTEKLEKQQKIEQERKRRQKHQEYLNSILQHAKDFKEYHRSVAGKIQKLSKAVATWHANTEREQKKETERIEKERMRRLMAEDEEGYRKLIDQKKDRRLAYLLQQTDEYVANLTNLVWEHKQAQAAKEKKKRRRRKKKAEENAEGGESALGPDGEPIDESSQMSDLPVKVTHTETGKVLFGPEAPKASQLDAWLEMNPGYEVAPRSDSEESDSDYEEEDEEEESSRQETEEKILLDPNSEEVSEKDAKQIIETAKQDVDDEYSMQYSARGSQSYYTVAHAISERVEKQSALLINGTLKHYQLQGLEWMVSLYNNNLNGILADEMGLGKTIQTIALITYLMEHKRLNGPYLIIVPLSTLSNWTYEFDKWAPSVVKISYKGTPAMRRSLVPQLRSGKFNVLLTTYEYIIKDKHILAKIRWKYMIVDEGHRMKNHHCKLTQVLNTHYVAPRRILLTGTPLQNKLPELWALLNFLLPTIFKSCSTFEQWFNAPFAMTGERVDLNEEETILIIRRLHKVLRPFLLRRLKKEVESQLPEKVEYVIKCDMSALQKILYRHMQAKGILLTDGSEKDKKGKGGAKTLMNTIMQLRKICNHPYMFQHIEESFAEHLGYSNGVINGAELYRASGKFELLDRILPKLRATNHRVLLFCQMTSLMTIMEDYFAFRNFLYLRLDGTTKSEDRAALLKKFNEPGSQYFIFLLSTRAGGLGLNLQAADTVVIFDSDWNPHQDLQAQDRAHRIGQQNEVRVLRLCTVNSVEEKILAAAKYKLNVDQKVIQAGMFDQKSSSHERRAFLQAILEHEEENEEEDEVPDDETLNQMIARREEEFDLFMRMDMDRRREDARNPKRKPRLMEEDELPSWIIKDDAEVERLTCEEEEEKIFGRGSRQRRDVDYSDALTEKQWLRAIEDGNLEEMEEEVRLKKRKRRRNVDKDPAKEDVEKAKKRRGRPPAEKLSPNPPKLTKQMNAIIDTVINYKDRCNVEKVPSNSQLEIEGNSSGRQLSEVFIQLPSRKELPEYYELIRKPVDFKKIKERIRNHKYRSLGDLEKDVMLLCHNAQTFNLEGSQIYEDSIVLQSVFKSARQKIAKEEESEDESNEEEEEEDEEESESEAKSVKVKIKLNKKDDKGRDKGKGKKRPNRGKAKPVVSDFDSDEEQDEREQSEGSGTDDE
Target sequence in this assay (P40337 whole entry): as the sequence (P40337 whole entry, looked up, one chain of several) above
Assay [15] has the same target. As to the kind of experiment: PROTAC activity at SMARCA2/VHL in human MV4-11 cells assessed as degradation of SMARCA2 measured for 24 hrs by Western blot analysis. Type of assay: cell-based.
Target sequence in this assay (P51531 whole entry): as the sequence (P51531 whole entry) above
Target sequence in this assay (P40337 whole entry): as the sequence (P40337 whole entry, looked up, one chain of several) above
Assay [16] concerns the target von Hippel-Lindau disease tumor suppressor/SWI/SNF-related matrix-associated actin-dependent regulator of chromatin subfamily A member 4 (Homo sapiens, UniProt P51532+P40337). As to the kind of experiment: PROTAC activity at SMARCA4/VHL in human MV4-11 cells assessed as degradation of SMARCA4 measured for 24 hrs by Western blot analysis. Type of assay: cell-based.

Assay [17] relates to MV4-11. As to the kind of experiment: Antiproliferative activity against human MV4-11 cells assessed as growth inhibition. Type of assay: functional, cell-based.
The target in assay [18] is T7, von Hippel-Lindau disease tumor suppressor/Bromodomain-containing protein 4. As to the kind of experiment: Protac activity at BRD4/VHL (unknown origin).
Assay [19] deals with Bromodomain-containing protein 4 (Homo sapiens) (UniProt O60885). As to the kind of experiment: Induction of BRD4 degradation in human HeLa cells assessed as maximum efficacy at 1 uM relative to control. Type of assay: cell-based.
Assay [20] deals with T7, von Hippel-Lindau disease tumor suppressor/Bromodomain-containing protein 4. As to the kind of experiment: Protac activity at VHL/BRD4 in human HeLa cells assessed as BRD4 degradation at 1 uM by Western blot analysis relative to control. In kind it is cell-based.
The target is the same in assay [21]. As to the kind of experiment: Protac activity at VHL/BRD4 in human HeLa cells assessed as BRD4 degradation by Western blot analysis relative to control. Type of assay: cell-based.

pIC50: −log10 of the molar value. Bounds are passed on as bounds.

T7 sequence (P40337 whole entry, looked up, other chains not shown): as the sequence (P40337 whole entry, looked up, one chain of several) above
Chain of von Hippel-Lindau disease tumor suppressor/SWI/SNF-related matrix-associated actin-dependent regulator of chromatin subfamily A member 4 (P51532 whole entry): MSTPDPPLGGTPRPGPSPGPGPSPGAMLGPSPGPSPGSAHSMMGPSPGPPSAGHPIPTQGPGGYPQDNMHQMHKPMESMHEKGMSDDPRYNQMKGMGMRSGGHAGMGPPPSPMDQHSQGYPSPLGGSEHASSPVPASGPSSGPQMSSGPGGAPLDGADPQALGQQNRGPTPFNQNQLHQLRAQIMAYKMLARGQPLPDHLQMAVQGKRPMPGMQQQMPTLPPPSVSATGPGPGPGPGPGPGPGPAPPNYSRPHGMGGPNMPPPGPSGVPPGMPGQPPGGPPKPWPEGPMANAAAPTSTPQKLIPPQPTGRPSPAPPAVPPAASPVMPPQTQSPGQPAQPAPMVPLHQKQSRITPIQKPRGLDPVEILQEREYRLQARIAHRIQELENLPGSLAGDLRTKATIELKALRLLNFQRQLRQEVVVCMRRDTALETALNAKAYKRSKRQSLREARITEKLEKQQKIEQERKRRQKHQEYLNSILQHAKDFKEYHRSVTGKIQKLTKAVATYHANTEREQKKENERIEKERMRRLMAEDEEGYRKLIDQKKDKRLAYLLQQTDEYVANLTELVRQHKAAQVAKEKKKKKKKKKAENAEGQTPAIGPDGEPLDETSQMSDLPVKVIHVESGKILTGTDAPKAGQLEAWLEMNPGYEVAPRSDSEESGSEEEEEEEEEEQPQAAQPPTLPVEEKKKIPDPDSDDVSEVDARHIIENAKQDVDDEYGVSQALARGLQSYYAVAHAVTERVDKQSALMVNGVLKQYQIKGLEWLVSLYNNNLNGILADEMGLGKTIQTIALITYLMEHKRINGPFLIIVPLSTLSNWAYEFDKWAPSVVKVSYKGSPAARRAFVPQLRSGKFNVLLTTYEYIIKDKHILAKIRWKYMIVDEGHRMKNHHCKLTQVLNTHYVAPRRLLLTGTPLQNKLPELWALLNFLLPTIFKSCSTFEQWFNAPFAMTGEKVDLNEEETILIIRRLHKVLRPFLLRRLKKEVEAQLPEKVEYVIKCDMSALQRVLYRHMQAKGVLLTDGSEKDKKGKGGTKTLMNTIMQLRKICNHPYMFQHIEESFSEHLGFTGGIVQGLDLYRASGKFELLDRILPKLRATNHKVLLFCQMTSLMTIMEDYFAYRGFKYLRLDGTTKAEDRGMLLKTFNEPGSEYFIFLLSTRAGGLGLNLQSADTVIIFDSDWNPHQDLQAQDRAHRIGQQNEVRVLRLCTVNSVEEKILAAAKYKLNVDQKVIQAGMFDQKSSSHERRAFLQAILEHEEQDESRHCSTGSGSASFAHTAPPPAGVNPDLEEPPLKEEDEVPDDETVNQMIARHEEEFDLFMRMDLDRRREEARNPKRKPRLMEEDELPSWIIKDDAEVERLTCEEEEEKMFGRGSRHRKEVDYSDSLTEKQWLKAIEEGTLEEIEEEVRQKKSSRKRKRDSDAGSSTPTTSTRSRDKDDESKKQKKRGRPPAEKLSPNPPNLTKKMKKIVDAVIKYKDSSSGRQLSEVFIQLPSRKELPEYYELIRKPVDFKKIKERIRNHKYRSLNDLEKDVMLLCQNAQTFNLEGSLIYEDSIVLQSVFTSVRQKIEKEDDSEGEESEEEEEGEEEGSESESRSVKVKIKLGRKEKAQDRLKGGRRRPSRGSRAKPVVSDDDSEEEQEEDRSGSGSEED
Chain of von Hippel-Lindau disease tumor suppressor/SWI/SNF-related matrix-associated actin-dependent regulator of chromatin subfamily A member 4 (P40337 whole entry): as the sequence (P40337 whole entry, looked up, one chain of several) above
Chain of von Hippel-Lindau disease tumor suppressor/Steroid hormone receptor ERR1 (Homo sapiens) (P11474 whole entry, looked up): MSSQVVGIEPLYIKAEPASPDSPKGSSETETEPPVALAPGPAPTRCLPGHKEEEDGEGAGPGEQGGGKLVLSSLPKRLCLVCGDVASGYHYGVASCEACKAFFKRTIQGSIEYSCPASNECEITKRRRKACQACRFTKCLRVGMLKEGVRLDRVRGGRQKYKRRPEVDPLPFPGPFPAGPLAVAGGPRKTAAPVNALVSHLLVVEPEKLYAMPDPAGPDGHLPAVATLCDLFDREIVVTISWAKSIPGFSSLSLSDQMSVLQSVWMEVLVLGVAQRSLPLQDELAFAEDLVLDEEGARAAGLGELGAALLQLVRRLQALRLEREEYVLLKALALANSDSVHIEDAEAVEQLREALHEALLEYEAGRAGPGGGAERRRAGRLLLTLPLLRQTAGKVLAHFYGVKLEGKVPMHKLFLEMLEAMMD
Chain of von Hippel-Lindau disease tumor suppressor/Steroid hormone receptor ERR1 (Homo sapiens) (P40337 whole entry, looked up): as the sequence (P40337 whole entry, looked up, one chain of several) above

`COc1cc(/C=C2\SC(=O)N(CCOCCC(=O)N[C@H](C(=O)N3C[C@H](O)C[C@H]3C(=O)NCc3ccc(-c4scnc4C)cc3)C(C)(C)C)C2=O)ccc1Oc1ccc(C#N)cc1C(F)(F)F`: the Emax was 86% in assay [1] and above 86% in assay [3]. In addition, the DC50 in [2] came out at 100 nM.

As to `COc1ccc(C2=N[C@H](c3ccc(Cl)cc3)[C@H](c3ccc(Cl)cc3)N2C(=O)N2CCN(CC(=O)NCCOCCOCCOCC(=O)Nc3ccc(OC[C@](C)(O)C(=O)Nc4ccc([N+](=O)[O-])c(C(F)(F)F)c4)cc3)C(=O)C2)c(OC(C)C)c1`, in assay [4], the DC50 was determined as 10000 nM.

For the compound `CC/C(=C(\c1ccc(O)cc1)c1ccc(OCCN(C)C(=O)COCCOCCOCCOc2cccc(C(=O)c3csc([C@@H]4CCCN4C(=O)[C@@H](NC(=O)[C@H](C)NC)C4CCCCC4)n3)c2)cc1)c1ccccc1`, the Emax was 50% in assay [5], above 70% in assay [6] and above 70% in [8]. Also, the DC50 in assay [7] turned out to be 1000 nM.

On to `CC/C(=C(\c1ccc(O)cc1)c1ccc(OCCN(C)C(=O)COCCOCCOCCOc2ccc(O[C@H]3C[C@@H](C(=O)N[C@@H]4CCCc5ccccc54)N(C(=O)[C@@H](NC(=O)[C@H](C)NC)C4CCCCC4)C3)cc2)cc1)c1ccccc1`, for which the Emax in assay [6] is above 80%; in [8], above 70%. The same compound had a DC50 in assay [7] of 1000 nM.

As to `COc1cc(C(=O)O)ccc1NC(=O)[C@@H]1N[C@@H](CC(C)(C)C)[C@](C#N)(c2ccc(Cl)cc2F)[C@H]1c1cccc(Cl)c1F` [IDASANUTLIN], the Activity in assay [9] was 64%.

In the case of `Cc1ncsc1-c1ccc([C@H](C)NC(=O)[C@@H]2C[C@@H](O)CN2C(=O)[C@@H](NC(=O)COCCCOCCNC(=O)C[C@@H]2N=C(c3ccc(Cl)cc3)c3c(sc(C)c3C)-n3c(C)nnc32)C(C)(C)C)cc1`, in assay [10], the DC50 is below 1 nM. For the same compound, the Emax in assay [11] is above 50%; in [12] it was above 90%.

On to `Cc1ncsc1-c1ccc(CNC(=O)[C@@H]2C[C@@H](O)CN2C(=O)[C@@H](NC(=O)C2(F)CC2)C(C)(C)C)c(OCCOc2ccc(CN3CCN(c4cc(-c5ccccc5O)nnc4N)CC3)cc2)c1`, for which the Emax in assay [13] was determined as 100%. Also, the DC50 was 6 nM in [14], 6 nM in assay [15] and 11 nM in assay [16]. The pIC50 in [17] is 7.55.

On to `CC(=O)N[C@H](C(=O)N1C[C@@H](O)C[C@H]1C(=O)NCc1ccc(-c2scnc2C)cc1)C(C)(C)SCCCCCNC(=O)C[C@@H]1N=C(c2ccc(Cl)cc2)c2c(sc(C)c2C)-n2c(C)nnc21`, for which, in assay [11], the maximum response (Emax) was above 90%. The compound further yielded a DC50 in assay [18] of 10 nM.

Turning to `Cc1ncsc1-c1ccc(CNC(=O)[C@@H]2C[C@@H](O)CN2C(=O)[C@@H](NC(=O)COCCOCCOCCNC(=O)C[C@@H]2N=C(c3ccc(Cl)cc3)c3c(sc(C)c3C)-n3c(C)nnc32)C(C)(C)C)cc1`, the Emax in [19], in assay [11] and in assay [21] was above 90% each time. In addition, in [20], the Activity came out at 90%.

Usually Emax stands for the size of the effect at its maximum, as opposed to the concentration needed. The term pIC50 denotes the IC50 on a negative log10 scale, so that one unit is a factor of ten.
